Measurements from patent US11013716B2, “Method for providing an increased expression of telomerase, brain-derived neurotrophic factor, stromal cell-derived factor-1, CXC chemokine receptor 4, and/or immune regulatory factor of stem cell” (HAWKING BIOLOGICAL TECHNOLOGY CO., LTD, priority 2013, dated 2021).

What was measured:
human hepatocytes = assay: Phase II metabolism assay of n-butylidenephthalide, human hepatocytes, LC-MS/MS; assay type: in vitro ADME; conditions: Human cryopreserved hepatocytes, BP 50 μM, 37° C., 6 hours
Excerpt: (§1) It has been known that the medicine metabolic pathway within an organism's liver can be primarily divided into phase I and phase II metabolism. Phase I metabolism occurs mainly by the redox reaction or hydrolysis reaction of medicine, while phase II metabolism occurs mainly by […]. This example simulated the phase I and II metabolism of butylidenephthalide that occur within an organism's liver by respectively mixing butylidenephthalide with hepatic microsomes or cryopreserved hepatocytes in vitro. The products in the reaction solution were analyzed by liquid chromatograph-tandem mass spectrometer (LC-MS/MS) to identify the metabolites and the metabolic profile. The experimental steps were as follows:
(§2) William's E medium containing 5×10^5 thawed human, rat or dog hepatocytes were respectively added into a 12-well culture dish, and the cells were cultured for 6 hours. Then, 0.5 mL of n-butylidenephthalide (comprising Z-BP 95%+E-BP 5%; purchased from ECHO Chemical) (50 μM) was added into the culture dish. After the cells were incubated at 37° C., 95% relative humidity and 5% CO2 for 6 hours, 2 mL of acetonitrile (100%) was added to terminate the reaction. […] The supernatant was then collected, dried, and analyzed by LC-MS/MS to identify the metabolites of n-butylidenephthalide. […]

rat hepatocytes = assay: Phase II metabolism assay of n-butylidenephthalide, rat hepatocytes, LC-MS/MS; assay type: in vitro ADME; conditions: Rat cryopreserved hepatocytes, BP 50 μM, 37° C., 6 hours
Excerpt: as §1, §2

[1] = Phase I metabolism assay of n-butylidenephthalide, rat hepatic microsomes, LC-MS/MS; assay type: in vitro ADME; conditions: Rat hepatic microsomes 0.5 mg/mL, BP 2 mM, NADPH, 37° C., 60 minutes
Excerpt: as §1
(§3) n-Butylidenephthalide (comprising Z-BP 95%+E-BP 5%; purchased from ECHO Chemical) (2 mM) was mixed respectively with K3PO4 buffer solution (100 mM, pH7.4) containing human, rats or dogs hepatic micrsomes (0.5 mg/mL). The mixture was maintained at 37° C. for 10 minutes, and then pre-warmed cofactors (NADPH (2 mM) and MgCl2 (3 mM)) were added thereto and the mixture was incubated at 37° C. for 60 minutes. Thereafter, 3-fold volume of acetonitrile containing 0.1% formic acid was added to the mixture to terminate the reaction. The mixture was centrifuged at 13000 rpm for 5 minutes. The supernatant was then collected and analyzed by LC-MS/MS to identify the metabolites.
(§4) The samples obtained from (1) and (2) were separately dissolved in acetonitrile/0.1% formic acid, centrifuged at 45000 g, 4° C. for 10 minutes. Then, an aliquot (20 μl) of each sample was injected into an autosampler vial (Agilent Technologies, USA) of a LC-MS/MS system to perform LC-MS/MS analysis. The LC-MS/MS system comprises an ABSCIEX 5500 Q TRAP™ system with 1200SL HPLC system (Agilent Technologies, USA), a HPLC column (Symmetry® C18, 3.5 μM, 4.6×75 mm), and a autosampler (Agilent Technologies, USA). A two-solvent system (solvent A: 0.1% formic acid; solvent B: methanol containing 0.1% formic acid) was used to perform HPLC at a flow rate of 0.8 mL/min. The HPLC gradient system was set as follows: 0 to 2 minutes held at 10% solvent B; 2 to 7 minutes with a gradient from 10% to 95% solvent B; 7 to 12 minutes held at 95% solvent B; 12 to 14 minutes with a gradient from 95% to 10% solvent B; 14 to 20 minutes held at 10% solvent B; and the retention time of HPLC analysis is 20 minutes. The mass spectrometry analysis was performed in positive ion electrospray ionization (+ESI) mode at 5.5 kV, 550° C., and N2 (nitrogen) was used as an auxiliary gas. The most intense peaks in the LC-MS/MS spectrum and the mass-shifted peaks in the LC-MS/MS spectrum of each sample as compared to n-butylidenephthalide spectrum were analyzed by LightSight™ Software to determine the metabolites in the samples and identifying the biotransformation pathway and metabolic profile of n-butylidenephthalide in an organism. The results are shown in Table 1, Table 2, FIG. 1A, FIG. 1B and FIG. 1C.

[2] = Phase I metabolism assay of n-butylidenephthalide, human hepatic microsomes, LC-MS/MS; assay type: in vitro ADME; conditions: Human hepatic microsomes 0.5 mg/mL, BP 2 mM, NADPH, 37° C., 60 minutes
Excerpt: as §1, §3, §4

[3] = Phase I metabolism assay of n-butylidenephthalide, dog hepatic microsomes, LC-MS/MS; assay type: in vitro ADME; conditions: Dog hepatic microsomes 0.5 mg/mL, BP 2 mM, NADPH, 37° C., 60 minutes
Excerpt: as §1, §3, §4

[4] = tested on: SOD1-G93A transgenic mice; assay: Survival of SOD1-G93A transgenic mice (amyotrophic lateral sclerosis model); assay type: in vivo; conditions: oral
Excerpt: It has been known that about 20% of amyotrophic lateral sclerosis patients were associated with mutations in the gene that encodes Cu/Zn superoxide dismutase enzyme (SOD1), and G93A was the major mutation site.
(§5) This example used the above SOD1-G93A transgenic mice as the object of study to perform in vivo analysis.

[5] = tested on: SOD1-G93A transgenic mice; assay: BBB scale of the hind limbs of SOD1-G93A transgenic mice; assay type: in vivo; conditions: 500 mg/kg once daily oral; FIG. 3
Protocol: as §5
After the mice were treated for 30 days, the hind limbs of the mice were examined by BBB scale (Basso, Beattie, and Bresnahan (BBB) Locomotor Rating Scale). […] BBB scale is used to record the efficiency of the treatments.

[6] = tested on: stromal cell-derived factor-1 (SDF1); assay: Gene expression level in ADSCs by RT-PCR: SDF1; assay type: cell-based, human; conditions: ADSCs, 10, 20 or 50 μg/ml (especially 20 μg/ml), 12 hours; FIG. 5
Protocol: (§6) Human ADSCs were isolated from human adipose tissue by the following steps. Human adipose tissue from clinical research was washed with equal volumes of phosphate-buffered saline (PBS) and minced with fine scissors. Then, the tissue was digested with 0.075% collagenase type I (Sigma-Aldrich Co., St. Louis, Mo., USA) at 37° C. for 30 to 60 minutes, and a Dulbecco's modified Eagle's medium (DMEM)/F-12 (Invitrogen, Carlsbad, Calif., USA) containing 10% fetal bovine serum (FBS, Invitrogen) was added to terminate the digestion. The digested adipose tissue cells were filtered through a 100 μm nylon mesh to remove the cellular debris. The cell suspension was centrifuged for 10 minutes to obtain a pellet and cultured at 37° C., 5% CO2 in a culture media (DMEM/F-12 containing 10% FBS, 100 U/mL penicillin, and 100 μg/mL streptomycin). Following the incubation, the plates were washed with PBS to remove the residual non-adherent red blood cells. […]
(§7) ADSCs (2×10^5 cells/well) were cultured in a 6 well dish in a 37° C. incubator overnight. […] Thereafter, the gene expression levels of brain-derived neurotrophic factor (BDNF), stromal cell-derived factor-1 (SDF1), C-X-C chemokine receptor type 4 (CXCR4), interleukin 6 (IL-6), and interleukin 8 (IL-8) of the ADSCs were determined by RT-PCR. […]

[7] = tested on: C-X-C chemokine receptor type 4 (CXCR4); assay: Gene expression level in ADSCs by RT-PCR: CXCR4; assay type: cell-based, human; conditions: ADSCs, 10, 20 or 50 μg/ml (especially 20 μg/ml), 12 hours; FIG. 5
Protocol: as §6, §7

telomerase [8] = assay: Telomerase expression level of ADSCs (Telomerase PCR ELISA kit); assay type: cell-based, human; conditions: 100 μM or 250 μM, 24 hours; FIG. 4
Protocol: as §6
The ADSCs were cultured in a 10 cm dish, and treated with valproic acid (VPA) (1 μM or 10 μM) or BP (comprising Z-BP 95%+E-BP 5%; purchased from ECHO Chemical) (100 μM or 250 μM) at different doses for 24 hours. Then, the telomerase expression level of the ADSCs was determined by a Telomerase PCR ELISA kit (Cat. No. 11854666910, Roche). […]

interleukin 6 (IL-6) = assay: Gene expression level in ADSCs by RT-PCR: IL-6; assay type: cell-based, human; conditions: ADSCs, 10, 20 or 50 μg/ml, 12 hours; FIG. 5
Protocol: as §6, §7

interleukin 8 (IL-8) = assay: Gene expression level in ADSCs by RT-PCR: IL-8; assay type: cell-based, human; conditions: ADSCs, 10, 20 or 50 μg/ml, 12 hours; FIG. 5
Protocol: as §6, §7

[9] = tested on: brain-derived neurotrophic factor (BDNF); assay: Gene expression level in ADSCs by RT-PCR: BDNF; assay type: cell-based, human; conditions: ADSCs, 10, 20 or 50 μg/ml (especially 20 μg/ml), 12 hours; FIG. 5
Protocol: as §6, §7

dog hepatocytes = assay: Phase II metabolism assay of n-butylidenephthalide, dog hepatocytes, LC-MS/MS; assay type: in vitro ADME; conditions: Dog cryopreserved hepatocytes, BP 50 μM, 37° C., 6 hours
Excerpt: as §1, §2

telomerase [10] = conditions: previous research; cited from earlier work
[11] = 500 mg/kg-body weight once daily

| Biotransformation pathway (Phase I metabolites of n-butylidenephthalide) [1] | Biotransformation pathway (Phase I metabolites of n-butylidenephthalide) [2] | Biotransformation pathway (Phase I metabolites of n-butylidenephthalide) [3] | Structure (SMILES) | other results |
| --- | --- | --- | --- | --- |
|  |  |  | C/C=C/C=C1\OC(=O)c2c1cccc2S(=O)(=O)O [Compound (12)] | Biotransformation pathway (Phase II metabolites of n-butylidenephthalide) (human hepatocytes): Dehydrogenation +; Biotransformation pathway (Phase II metabolites of n-butylidenephthalide) (rat hepatocytes): Dehydrogenation + |
| Tri-Demethylation | Tri-Demethylation | Tri-Demethylation | C=C1OC(=O)c2ccccc21 [Compound (8)] |  |
| Oxidation | Oxidation | Oxidation | CC(O)C/C=C1\OC(=O)c2ccccc21 (stereo not drawn) [Compound (4)] |  |
| Dehydrogenation | Dehydrogenation | Dehydrogenation | C/C=C/C=C1\OC(=O)c2ccccc21 [Compound (2)] |  |
|  |  |  | CCCC=C1OC(=O)C2=C1CCC=C2 [ligustilide, 3-butylidene-4,5-dihydrophthalide] | Longevity prolonged as compared to the control group [4, 11]: about 74.8±1.2 days; Time after which the BBB scale of the hind limbs decreased rapidly [5]: > 170 days |
| Hydrogenation (forming | Hydrogenation (forming | Hydrogenation (forming | CCCCC1(O)OC(=O)c2ccccc21 (stereo not drawn) [Compound (7)] |  |
|  |  |  | CCCC=C1OC(=O)c2ccccc21 [BP, n-butylidenephthalide] | Longevity prolonged as compared to the control group ([4]; 250 mg/kg-body weight twice daily): about 91.3±16 days; Longevity prolonged as compared to the control group [4, 11]: about 22.7±2.8 days; Gene expression level of SDF1 [6]: increased; Gene expression level of CXCR4 [7]: increased; Telomerase activity (expression level of telomerase) of ADSCs (telomerase [8]): higher telomerase activity; Gene expression level of IL-6 (interleukin 6 (IL-6)): increased; Time after which the BBB scale of the hind limbs decreased rapidly [5]: > 135 days; Gene expression level of IL-8 (interleukin 8 (IL-8)): increased; Gene expression level of BDNF [9]: increased |
|  |  |  | C/C=C/C=C1\OC(=O)c2c(O[C@@H]3OC(CO)[C@@H](O)[C@H](O)C3O)cccc21 (stereo partly drawn) [Compound (14)] | Biotransformation pathway (Phase II metabolites of n-butylidenephthalide) (dog hepatocytes): Dehydrogenation + |
|  |  |  | CCCC(CCC)C(=O)O [VPA, valproic acid] | Telomerase activity of ADSCs (telomerase [10]): could increase the telomerase activity |
| Hydrogenation (forming | Hydrogenation (forming | Hydrogenation (forming | CCCCC(=O)c1ccccc1C(=O)O [Compound (5)] |  |
